Laboratory results as given in ChEMBL document CHEMBL1153762, “Novel, broad-spectrum anticonvulsants containing a sulfamide group: advancement of N-((benzo[b]thien-3-yl)methyl)sulfamide (JNJ-26990990) into human clinical studies” (J Med Chem, 2009).
Active and inactive are the calls of the source.

What was measured:
Mus musculus [1] = assay: Anticonvulsant activity against maximal electroshock-induced seizure in CD1 mouse at 100 mg/kg, po after 0.5 hrs; assay type: functional, organism-based; set-up: dose 100 mg/kg
Mus musculus [2] = assay: Anticonvulsant activity against maximal electroshock-induced seizure in CD1 mouse at 100 mg/kg, po after 2 hrs; assay type: functional, organism-based; set-up: dose 100 mg/kg
Mus musculus [3] = assay: Anticonvulsant activity against maximal electroshock-induced seizure in CD1 mouse at 300 mg/kg, po after 0.5 hrs; assay type: functional, organism-based; set-up: dose 300 mg/kg
Carbonic anhydrase 2 [4] = target: T1, Carbonic anhydrase 2 (Homo sapiens, UniProt P00918); assay: Inhibition of human carbonic anhydrase 2 by fluorimetric assay
Carbonic anhydrase 2 [5] = target: T1, Carbonic anhydrase 2
Description: Inhibition of human carbonic anhydrase 2 by CO2 hydration assay

[6] = target: Sodium channel protein type 2 subunit alpha (Rattus norvegicus, UniProt P04775); assay: Inhibition of rat Nav1.2 channel expressed in chinese hamster CHL1610 cells at preconditioning pulse of -67 mV after 2 to 3 mins by whole-cell patch-clamp technique; assay type: cell-based
[7] = target: Sodium channel protein type 2 subunit alpha (Rattus norvegicus) (UniProt P04775); assay: Inhibition of rat Nav1.2 channel expressed in chinese hamster CHL1610 cells at preconditioning pulse of -107 to -67 mV up to 300 uM after 2 to 3 mins by whole-cell patch-clamp technique; assay type: cell-based
Mus musculus [8] = assay: Anticonvulsant activity against maximal electroshock-induced seizure in po dosed CF1 mouse after 1 hr; assay type: functional
Mus musculus [9] = assay: Neurotoxicity in mouse assessed as motor impairment 400 mg/kg, ip by rotarod test; assay type: toxicity, organism-based; set-up: dose 400 mg/kg, route intraperitoneal; conditions: in vivo
Rattus norvegicus [10] = assay: Anticonvulsant activity against electric stimulation-induced pharmacoresistant limbic epilepsy in ip dosed Sprague-Dawley rat kindling model assessed as reduction of seizure severity and excitability administered 15 mins after last electric stimulation measured after 15 mins to 1 hr; assay type: functional; conditions: Limbic system
Carbonic anhydrase 2 [11] = target: T1, Carbonic anhydrase 2; assay: Inhibition of human carbonic anhydrase 2 at 100 uM by CO2 hydration assay
Mus musculus [12] = assay: Anticonvulsant activity against picrotoxin-induced seizure in ip dosed CF1 mouse after 0.25 hrs; assay type: functional
Rattus norvegicus [13] = assay: Anticonvulsant activity against electric stimulation-induced pharmacoresistant limbic epilepsy in Sprague-Dawley rat kindling model assessed as reduction of seizure severity and excitability at > 300 mg/kg, ip administered 15 mins after last electric stimulation; assay type: functional, organism-based; set-up: dose 300 mg/kg; conditions: Limbic system
Mus musculus [14] = assay: Anticonvulsant activity against maximal electroshock-induced seizure in CD1 mouse at 300 mg/kg, po after 2 hrs; assay type: functional, organism-based; set-up: dose 300 mg/kg
Rattus norvegicus [15] = assay: Anticonvulsant activity against maximal electroshock-induced seizure in po dosed rat; assay type: functional
Mus musculus [16] = assay: Anticonvulsant activity against bicuculline-induced seizure in ip dosed CF1 mouse after 0.25 hrs; assay type: functional
Mus musculus [17] = assay: Anticonvulsant activity against pentylenetetrazole-induced seizure in ip dosed CF1 mouse after 0.25 hrs; assay type: functional
Mus musculus [18] = assay: Anticonvulsant activity against pentylenetetrazole-induced seizure in CF1 mouse assessed as increase in threshold of seizure twitch at 107 mg/kg, ip administered 15 mins before pentylenetetrazole infusion; assay type: functional; conditions: route intraperitoneal
Mus musculus [19] = assay: Anticonvulsant activity against pentylenetetrazole-induced seizure in CF1 mouse assessed as increase in seizure threshold for clonus at 107 mg/kg, ip administered 15 mins before pentylenetetrazole infusion; assay type: functional; conditions: route intraperitoneal
Mus musculus [20] = assay: Anticonvulsant activity against pentylenetetrazole-induced seizure in ip CF1 mouse assessed as increase in threshold of seizure twitch at ED50 administered 15 mins before pentylenetetrazole infusion; assay type: functional, organism-based
Mus musculus [21] = assay: Anticonvulsant activity against pentylenetetrazole-induced seizure in ip dosed CF1 mouse assessed as increase in seizure threshold for clonus at ED50 administered 15 mins before pentylenetetrazole infusion; assay type: functional, organism-based
Mus musculus [22] = assay: Anticonvulsant activity against pentylenetetrazole-induced seizure in ip dosed CF1 mouse assessed as increase in seizure threshold for clonus at TD50 administered 15 mins before pentylenetetrazole infusion; assay type: functional, organism-based
Mus musculus [23] = assay: Anticonvulsant activity against pentylenetetrazole-induced seizure in ip dosed CF1 mouse assessed as increase in threshold of seizure twitch at TD50 administered 15 mins before pentylenetetrazole infusion; assay type: functional, organism-based
Rattus norvegicus [24] = assay: Anticonvulsant activity against maximal electroshock-induced seizure in po dosed Sprague-Dawley rat after 2 hrs; assay type: functional
Rattus norvegicus [25] = assay: Anticonvulsant activity against maximal electroshock-induced seizure in po dosed rat after 4 hrs; assay type: functional
Mus musculus [26] = assay: Anticonvulsant activity against audiogenic seizures in ip dosed AGS mouse assessed as inhibition of hindlimb tonic extension administered 1 hr prior to 11 kHz sound induction; assay type: functional
Mus musculus [27] = assay: Anticonvulsant activity against maximal electroshock-induced seizure in CD1 mouse at 100 to 300 mg/kg, po after 0.5 to 8 hrs; assay type: functional, organism-based
Mus musculus [28] = assay: Anticonvulsant activity against maximal electroshock-induced seizure in CD1 mouse at 300 mg/kg, po after 4 hrs; assay type: functional, organism-based; set-up: dose 300 mg/kg
Mus musculus [29] = assay: Anticonvulsant activity against maximal electroshock-induced seizure in po dosed CD1 mouse after 0.5 hrs; assay type: functional
Rattus norvegicus [30] = assay: Anticonvulsant activity against electric stimulation-induced pharmacoresistant limbic epilepsy in Sprague-Dawley rat kindling model assessed as reduction of seizure severity and excitability at > 26 mg/kg, ip administered 15 mins after last electric stimulation; assay type: functional, organism-based; set-up: dose 26 mg/kg; conditions: Limbic system
[31] = Mus musculus, CF1, po, 1 h, read-out: ED50

Sequence of Sodium channel protein type 2 subunit alpha (P04775 whole entry): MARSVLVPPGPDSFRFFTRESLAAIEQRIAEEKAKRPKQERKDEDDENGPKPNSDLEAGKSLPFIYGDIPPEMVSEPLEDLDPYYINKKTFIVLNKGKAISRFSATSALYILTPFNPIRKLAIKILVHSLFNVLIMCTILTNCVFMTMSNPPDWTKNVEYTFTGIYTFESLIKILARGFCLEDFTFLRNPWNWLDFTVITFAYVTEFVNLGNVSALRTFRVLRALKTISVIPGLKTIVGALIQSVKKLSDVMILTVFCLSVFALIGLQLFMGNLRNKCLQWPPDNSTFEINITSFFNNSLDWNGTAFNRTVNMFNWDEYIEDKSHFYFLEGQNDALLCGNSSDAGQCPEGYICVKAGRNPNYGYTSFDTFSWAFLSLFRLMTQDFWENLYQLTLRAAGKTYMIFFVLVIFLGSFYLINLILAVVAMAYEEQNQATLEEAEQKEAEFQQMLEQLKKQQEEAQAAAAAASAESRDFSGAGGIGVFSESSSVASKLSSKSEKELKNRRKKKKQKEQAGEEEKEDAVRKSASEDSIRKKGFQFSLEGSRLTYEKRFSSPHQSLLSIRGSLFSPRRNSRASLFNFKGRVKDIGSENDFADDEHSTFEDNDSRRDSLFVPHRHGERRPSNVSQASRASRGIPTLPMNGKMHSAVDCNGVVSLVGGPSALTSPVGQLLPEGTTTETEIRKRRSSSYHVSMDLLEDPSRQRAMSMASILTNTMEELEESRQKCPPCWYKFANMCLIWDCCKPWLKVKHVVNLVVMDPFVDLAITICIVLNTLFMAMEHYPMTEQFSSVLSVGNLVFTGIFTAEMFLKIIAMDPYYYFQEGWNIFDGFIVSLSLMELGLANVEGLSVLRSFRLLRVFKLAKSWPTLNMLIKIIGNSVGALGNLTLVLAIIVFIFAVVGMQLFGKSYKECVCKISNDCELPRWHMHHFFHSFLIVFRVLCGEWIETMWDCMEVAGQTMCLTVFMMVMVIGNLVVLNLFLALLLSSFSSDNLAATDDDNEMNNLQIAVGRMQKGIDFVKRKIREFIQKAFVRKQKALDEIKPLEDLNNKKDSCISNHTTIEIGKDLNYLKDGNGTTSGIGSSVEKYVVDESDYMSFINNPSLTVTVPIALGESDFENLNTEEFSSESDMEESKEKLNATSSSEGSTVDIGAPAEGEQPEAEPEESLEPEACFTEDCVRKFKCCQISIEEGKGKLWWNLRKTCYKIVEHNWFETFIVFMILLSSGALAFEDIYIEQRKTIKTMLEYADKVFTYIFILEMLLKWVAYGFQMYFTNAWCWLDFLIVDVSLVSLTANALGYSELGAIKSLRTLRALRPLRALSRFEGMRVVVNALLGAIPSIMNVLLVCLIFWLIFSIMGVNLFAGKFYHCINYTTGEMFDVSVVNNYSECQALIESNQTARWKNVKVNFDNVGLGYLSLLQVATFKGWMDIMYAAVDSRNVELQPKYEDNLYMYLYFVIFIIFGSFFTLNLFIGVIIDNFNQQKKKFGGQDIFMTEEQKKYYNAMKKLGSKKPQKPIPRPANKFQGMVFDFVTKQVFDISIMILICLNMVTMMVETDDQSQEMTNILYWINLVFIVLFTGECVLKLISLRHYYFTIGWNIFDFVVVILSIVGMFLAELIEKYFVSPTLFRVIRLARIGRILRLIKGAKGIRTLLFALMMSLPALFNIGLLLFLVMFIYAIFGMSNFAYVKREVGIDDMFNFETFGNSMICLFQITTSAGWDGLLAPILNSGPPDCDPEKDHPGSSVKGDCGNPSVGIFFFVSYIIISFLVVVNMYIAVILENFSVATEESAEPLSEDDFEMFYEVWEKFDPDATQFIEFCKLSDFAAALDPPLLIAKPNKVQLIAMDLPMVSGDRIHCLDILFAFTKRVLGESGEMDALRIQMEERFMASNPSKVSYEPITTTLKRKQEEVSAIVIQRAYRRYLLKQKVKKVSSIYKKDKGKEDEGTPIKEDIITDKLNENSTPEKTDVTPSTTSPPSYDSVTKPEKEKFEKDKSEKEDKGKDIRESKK
Sequence of Sodium channel protein type 2 subunit alpha (Rattus norvegicus) (P04775 whole entry, looked up): as the sequence (P04775 whole entry) above

NS(=O)(=O)NCc1csc2ccc(Cl)cc12
Activity (Mus musculus [1]): inactive | Activity (Mus musculus [2]): inactive | Activity (Mus musculus [3]): inactive | IC50 (Carbonic anhydrase 2 [4]): 8.4 µM

Cc1oc2ccccc2c1CNS(N)(=O)=O
Activity (Mus musculus [2]): inactive

CC(NS(N)(=O)=O)c1csc2ccccc12 (racemic)
IC50 (Carbonic anhydrase 2 [5]): 130 µM

Nc1nnc(-c2cccc(Cl)c2Cl)c(N)n1 [LAMOTRIGINE]
IC50 [6]: 35 µM

NS(=O)(=O)NCc1csc2ccc(Br)cc12
IC50 (Carbonic anhydrase 2 [4]): 100 µM

NCC1(CC(=O)O)CCCCC1
inhibition [7]: inactive

Cn1cc(CNS(N)(=O)=O)c2ccccc21
Activity (Mus musculus [1]): inactive | Activity (Mus musculus [2]): inactive | Activity (Mus musculus [3]): Active | ED50 (Mus musculus [8]; [31]): 345 mg/kg

NS(=O)(=O)NCc1coc2ccccc12
Activity (Mus musculus [1]): inactive | Activity (Mus musculus [2]): inactive | Activity (Mus musculus [3]): Active | ED50 (Mus musculus [8]; [31]): > 400 mg/kg | Activity (Mus musculus [9]): Non-toxic

O=C1NC(=O)C(c2ccccc2)(c2ccccc2)N1 [PHENYTOIN]
Activity (Rattus norvegicus [10]): Active | IC50 [6]: 22 µM

Cc1ccc2scc(CNS(N)(=O)=O)c2c1
ED50 (Mus musculus [8]; [31]): > 400 mg/kg | IC50 (Carbonic anhydrase 2 [4]): 45 µM | inhibition (Carbonic anhydrase 2 [11]): 44%

NS(=O)(=O)NCc1c[nH]c2ccccc12
Activity (Mus musculus [2]): inactive | IC50 (Carbonic anhydrase 2 [4]): 300 µM

CCCC(CCC)C(=O)O [VALPROIC ACID]
ED50 (Mus musculus [12]): > 200 mg/kg | Activity (Rattus norvegicus [13]): Active

NS(=O)(=O)NCc1csc2ccc(F)cc12
Activity (Mus musculus [1]): inactive | ED50 (Mus musculus [8]; [31]): 231 mg/kg

CCC1(C)CC(=O)NC1=O (stereo not drawn)
Activity (Rattus norvegicus [10]): inactive

CC1(C)O[C@@H]2[C@@H](CO[C@@]3(COS(N)(=O)=O)OC(C)(C)O[C@@H]23)O1 [TOPIRAMATE]
Activity (Mus musculus [14]): inactive | ED50 (Mus musculus [8]): 43.8 mg/kg | ED50 (Rattus norvegicus [15]): 6.6 mg/kg | ED50 (Mus musculus [16]): >500 mg/kg | ED50 (Mus musculus [17]): >500 mg/kg | Activity (Mus musculus [18]): 0% | Activity (Mus musculus [19]): 0% | Activity (Mus musculus [20]): inactive | Activity (Mus musculus [21]): inactive | Activity (Mus musculus [22]): inactive | Activity (Mus musculus [23]): inactive | ED50 (Rattus norvegicus [24]): 6.6 mg/kg | ED50 (Rattus norvegicus [25]): 53.5 mg/kg | ED50 (Mus musculus [26]): 4.2 mg/kg | IC50 [6]: 97 µM

NS(=O)(=O)NCc1cccc2ccccc12
ED50 (Mus musculus [8]; [31]): 123 mg/kg

CCCCNS(N)(=O)=O
Activity (Mus musculus [27]): inactive

NS(=O)(=O)NCc1ccccc1
Activity (Mus musculus [1]): Active | Activity (Mus musculus [3]): Active | Activity (Mus musculus [28]): Active | ED50 (Mus musculus [29]): 440 mg/kg

NC(=O)N1c2ccccc2C=Cc2ccccc21
Activity (Rattus norvegicus [30]): Active

CC[C@@H](C(N)=O)N1CCCC1=O
ED50 (Mus musculus [16]; Mus musculus, CF1, ip, 0.25 h, read-out: ED50): > 540 mg/kg
